These results are taken from patent US9648880B2, “Antifungal agents and uses thereof” (University of Massachusetts, priority 2012, dated 2017).

For one test, the system named is C. albicans SC5314. Nature of the test: alamarBlue-based polystyrene adhesion assay. It is filed as cell-based, Candida albicans. Particulars: for C. albicans adhesion to polystyrene: 25 μM. The source says:
We prioritized the candidate compounds by testing the dose-dependence of their effects. Because of the laborious washing required to remove background crystal violet dye staining, we developed adhesion assays using alternative detection reagents. Previous experiments screens have used the vital dye alamarBlue to measure Candida viability (Lafleur, J. Antimicrob Chemother. 66: 820-826, 2011; Youngsaye supra), so we tested this reagent as a way to measure cells remaining adhered after washing. […] The majority of the reordered compounds were effective at reducing Candida adhesion at 50 μM, the concentration originally tested during the screen. […] Although compounds that were still effective at 25 μM were less generally less so at 7.5 μM (FIG. 1C), many candidates still reduced adhesion by >50% at this lower concentration.
Overnight cultures of SC5314 and edt1^−/− cells were grown and plated onto Immulon 2HB 96-well microtiter plates and treated with small molecules as described above. Following incubations, media was decanted and plates were washed twice with 100 μl/well PBS. alamarBlue (Life Technologies) was resuspended to a final concentration of 5% in RPMI buffered with 0.165 M MOPS and then 100 μl was added to each well, followed by further incubation for 2 hours at 37° C. Fluorescence signals at 555Ex/585Em were read using a SpectraMax M5 Plate reader (Molecular Devices).
On the technique in general: The colour change of resazurin is a common sign of viable cells or microbes.

Test [1] relates to C. elegans infected with C. albicans. Description: C. elegans pathogenesis assay. It is filed as in vivo, Caenorhabditis elegans. Particulars: 12.5 μM. As to the method: We therefore tested whether compound #4 can alter fungal infections in two in vivo settings. First, we performed pathogenesis assays in which nematodes (Caenorhabditis elegans) are infected with C. albicans, resulting in killing of the nematode host (Jain, 2009; Okoli, 2009). We used this assay to test whether compound #4 might have a protective effect, exposing C. elegans to Candida albicans and either DMSO vehicle, the commonly used antifungal drug fluconazole at 12.5 μM, or compound #4 at the same concentration. […] Therefore, consistent with its in vitro activities, compound #4 functions as an antifungal agent in this model infection system.
Three worms in the L3/L4 stage were transferred to each of two NGM agar plates containing E. coli OP50 and grown at 20° C. for four days. On the day of the experiment, worms were washed off the plates with M9 buffer and centrifuged at 900×g for 2 min. The supernatant was removed, and the worms were then resuspended in a bleach solution (1:4 dilution of commercial bleach (5.25%) diluted in 0.25 M sodium hydroxide). The worm suspension was mixed gently by inversion for 3 min, and centrifuged for 2 min at 2,000×g. The pellet containing the eggs was washed with M9 buffer and centrifuged at 2,000×g for 2 min and then resuspended in 500 μl M9 buffer. […]

Test [2] deals with C. albicans hyphae formation. Nature of the test: filamentation assay (hyphal morphogenesis). It is filed as cell-based, Candida albicans. Particulars: for inhibition of hyphal formation and induction of RFP: 12.5 μM, Spider media 16 hours, HWP1-RFP reporter. The source says:
Because the ability to interconvert between yeast and hyphal morphologies is usually correlated with pathogenicity (Finkel, 2010), we explored this observation in more detail. First, we assessed the effect of our compounds on the induction of hyphae by “Spider” media (Chauhan, 2009). For this experiment, we used a strain that contains the hyphal-specific HWP1 promoter to the Red Fluorescent Protein (RFP) open reading frame (Ganguly, 2011), which provides a molecular reporter for hyphae formation that we used in addition to visual examination of cell morphology. We initially tested each of the compounds that inhibit adhesion to polystyrene (FIG. 1B), as well as compounds #9, Q1 and Q2 (FIG. 3A), at concentration of 12.5 μM. […] Compounds Q1 and Q2 share a “Scaffold 1” backbone with compounds #4 and #9, but contain a quinoline group (FIG. 3A). Therefore, the compounds with a quinoline group can inhibit hyphae formation, but not adhesion to polystyrene or human cells (FIG. 3). […] Additionally, multiple chemical backbones are able to inhibit hyphae formation, because compound #12 has a “Scaffold 2” backbone (Table 2). To better discriminate the inhibitory compounds, we tested #4, 12 and Q1 at lower concentrations. […] Furthermore, as in the polystyrene adhesion assay (FIG. 8), compound #4 is effective at inhibiting hyphae formation at concentrations >2.5 μM.
Overnight cultures of SC5314 or SGH584 were pregrown in uridine-supplemented SC media at 30° C. to an OD600>13 and diluted 1:10 into prewarmed Spider medium (1% Peptone (Difco), 1% Mannitol (Sigma) and 0.2% K2HPO4 (Sigma) (Chauhan, 2009) in glass tubes and grown for 16 hrs at 37° C. shaking at 200 rpm in the presence or absence of drugs as indicated. DIC and fluorescence images were acquired using a Zeiss Axiovert 200 inverted microscope equipped with a Qicam 12-bit Fast 1394 digital CCD camera (Qimaging). Image acquisition was carried out using Openlab 5 software (Improvison).
Because the ability to interconvert between yeast and hyphal morphologies is usually correlated with pathogenicity, we explored this in more detail, examining induction of hyphae upon carbon starvation (using Spider media). We used a strain that contains the Red Fluorescent Protein (RFP) open reading frame driven by the hyphal-specific HWP1 promoter (Ganguly et al., Eukaryotic Cell 10:1448, 2011), which provides a molecular reporter for hyphae formation in addition to cell morphology. […] Therefore, the shared backbone of these compounds correlates with inhibition of multiple activities.
Hyphal morphogenesis is induced by multiple stimuli that act via multiple signal transduction pathways and is mediated by a complex transcriptional network. […] We detected morphological difference between control and compound #4-treated cultures as early as 60 minutes in 10% serum, and 90 minutes in Spider media.

The structures appear in SMILES notation. “Also recorded” adds a separate entry of the source.

Turning to `Cc1ccc(C(=O)N2CCN(c3ccc([N+](=O)[O-])cc3)CC2)cc1Cl` [Compound 4], the “C. albicans adhesion to polystyrene” value in the test with C. albicans SC5314 is “effective adhesion inhibitors”. Further, in the test on C. albicans SC5314 (#4 1.5 μM with #12 4 and 6 μM), the “synergy on adhesion upon combining compound #4 and compound #12” value is “did not further reduce adhesion”. For the same compound, the “effect on adhesion of compound alone” value in the test on C. albicans SC5314 (compound #4 1.5 μM, compound #12 4 and 6 μM) is “partial effects”. The “lifespan of infected worms” value in test [1] was “significantly increased survival; also recorded: increased the lifespan of the infected worms”. The “hyphae formation induced by Spider media” value in test [2] (10 μM) is “completely blocked the hyphae formation”. The “inhibition of hyphal formation and induction of RFP” value in test [2] is “most potently inhibited hyphal formation and induction of RFP”. The “earliest morphological difference between control and treated cultures” value in test [2] (10% serum) was 60 minutes. The “hyphal response to Spider media and mammalian serum” value in test [2] (37° C.) is “inhibited the response to both these stimuli”. For the same compound, in test [2] (Spider media), the “concentrations effective at inhibiting hyphae formation” value was over 2.5 µM; the “earliest morphological difference between control and treated cultures” value came to 90 minutes. Besides, in test [2] (Spider media, HWP1-RFP reporter (Example 14)), the formation of hyphae result is recorded as “blocked formation of hyphae”. Besides, the “time at which effect could be detected after Spider media addition” value in test [2] (protein reporter assay) is on record as “within two hours”.

As for `O=C(c1ccc(Cl)c(Cl)c1)N1CCN(c2ccc([N+](=O)[O-])cc2)CC1` [Compound 9], in the test with C. albicans SC5314, the “C. albicans adhesion to polystyrene” value is listed as “effective adhesion inhibitors”. For the same compound, the “inhibition of hyphal formation and induction of RFP” value in test [2] was “most potently inhibited hyphal formation and induction of RFP”.
